In patent publication EP2970215B1, “PYRROLIDINE DERIVATIVES, PHARMACEUTICAL COMPOSITIONS CONTAINING THEM, AND THEIR USE IN THERAPY” (AbbVie Deutschland GmbH & Co. KG, priority 2013, dated 2014):

Target: T1, human GlyT1c transporter (Homo sapiens, UniProt P48067)
T1 construct: expressed in transfected cells; host or cells: CHO cells (recombinant; line hGlyT1c_5_CHO is named for the uptake assay)
T1 sequence (P48067 1-706): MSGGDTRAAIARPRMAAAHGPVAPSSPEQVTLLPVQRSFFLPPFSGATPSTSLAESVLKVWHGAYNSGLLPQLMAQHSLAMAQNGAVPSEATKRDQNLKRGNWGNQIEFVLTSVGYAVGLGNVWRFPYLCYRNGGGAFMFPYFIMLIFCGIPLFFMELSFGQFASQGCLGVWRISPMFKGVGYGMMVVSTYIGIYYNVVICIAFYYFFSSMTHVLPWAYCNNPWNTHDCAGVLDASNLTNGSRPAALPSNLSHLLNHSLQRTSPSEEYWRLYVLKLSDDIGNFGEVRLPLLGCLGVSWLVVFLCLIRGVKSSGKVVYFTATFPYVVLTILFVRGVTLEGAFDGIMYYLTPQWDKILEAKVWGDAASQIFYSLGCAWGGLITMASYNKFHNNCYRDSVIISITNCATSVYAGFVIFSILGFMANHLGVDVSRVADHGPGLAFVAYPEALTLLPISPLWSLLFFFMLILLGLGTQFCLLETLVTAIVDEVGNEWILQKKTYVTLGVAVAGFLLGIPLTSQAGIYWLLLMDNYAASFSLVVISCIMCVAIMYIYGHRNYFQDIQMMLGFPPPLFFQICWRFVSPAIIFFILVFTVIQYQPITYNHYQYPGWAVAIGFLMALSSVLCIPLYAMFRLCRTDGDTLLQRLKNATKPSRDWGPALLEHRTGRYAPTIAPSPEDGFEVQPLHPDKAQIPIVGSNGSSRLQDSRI
Assay: Radioligand binding assay using recombinant CHO cell membranes expressing human GlyT1
Conditions: radioligand binding to human GlyT1c transporter-expressing membranes
Text: 2. Radioligand binding assays using recombinant CHO cell membranes expressing human GlyT1: […]

`COc1ccc(N[C@@H]2CN(S(=O)(=O)c3cn(C)cn3)C[C@H]2c2ccccc2)cc1` (relative stereo) [Example 50, trans-N-(4-methoxyphenyl)-1-[(1-methyl-1H-imidazol-4-yl)sulfonyl]-4-phenylpyrrolidin-3-amine] and `Cn1cnc(S(=O)(=O)N2C[C@@H](Nc3cccc(C(F)(F)F)c3)[C@H](c3ccccc3)C2)c1` (relative stereo) [Example 67, trans-1-[(1-methyl-1H-imidazol-4-yl)sulfonyl]-4-phenyl-N-[3-(trifluoromethyl)phenyl]pyrrolidin-3-amine] cannot be ordered by Ki: ≤ 10000 nM for the first, ≤ 10 nM for the second.

`Cn1cnc(S(=O)(=O)N2C[C@@H](C(=O)NCc3ccccc3)[C@H](c3ccc(F)cc3)C2)c1` (relative stereo) [Example 289, Trans-N-benzyl-4-(4-fluorophenyl)-1-[(1-methyl-1H-imidazol-4-yl)sulfonyl]pyrrolidine-3-carboxamide] and `Cn1cnc(S(=O)(=O)N2C[C@@H](C(=O)NCc3cc(C(F)(F)F)ccc3Cl)[C@H](c3ccc(F)cc3)C2)c1` (relative stereo) [Example 633, Trans-N-[2-chloro-5-(trifluoromethyl)benzyl]-4-(4-fluorophenyl)-1-[(1-methyl-1H-imidazol-4-yl)sulfonyl]pyrrolidine-3-carboxamide] cannot be ordered by Ki: ≤ 1000 nM for the first, ≤ 1000 nM for the second.

`CC(C)COc1cc(N[C@H]2CN(S(=O)(=O)c3cn(C)cn3)C[C@@H]2c2ccc(F)cc2)ncn1` [Example 718, N-{(3R,4S)-4-(4-fluorophenyl)-1-[(1-methyl-1H-imidazol-4-yl)sulfonyl]pyrrolidin-3-yl}-6-(2-methylpropoxy)pyrimidin-4-amine] and `Cn1cnc(S(=O)(=O)N2C[C@H](Nc3cc(F)ccn3)[C@@H](c3ccc(F)cc3)C2)c1` [Example 736, 4-fluoro-N-{(3R,4S)-4-(4-fluorophenyl)-1-[(1-methyl-1H-imidazol-4-yl)sulfonyl]pyrrolidin-3-yl}pyridin-2-amine] cannot be ordered by Ki: ≤ 100 nM for the first, ≤ 1000 nM for the second.

`CCCCC(O)C(=O)N[C@H]1CN(S(=O)(=O)c2cn(C)cn2)C[C@@H]1c1ccc(F)cc1` (stereo partly drawn) [Example 673, N-{(3R,4S)-4-(4-fluorophenyl)-1-[(1-methyl-1H-imidazol-4-yl)sulfonyl]pyrrolidin-3-yl}-2-hydroxyhexanamide] and `CCCCC(F)(F)C(=O)N[C@H]1CN(S(=O)(=O)c2cn(C)cn2)C[C@@H]1c1ccc(F)cc1` [Example 708, 2,2-difluoro-N-{(3R,4S)-4-(4-fluorophenyl)-1-[(1-methyl-1H-imidazol-4-yl)sulfonyl]pyrrolidin-3-yl}hexanamide] cannot be ordered by Ki: ≤ 1000 nM for the first, ≤ 10000 nM for the second.

`Cn1cnc(S(=O)(=O)N2C[C@H](NCCCCC3OCCC(C)(C)O3)[C@@H](c3ccc(F)cc3)C2)c1` (stereo partly drawn) [Example 684, (3R,4S)-N-[4-(4,4-dimethyl-1,3-dioxan-2-yl)butyl]-4-(4-fluorophenyl)-1-[(1-methyl-1H-imidazol-4-yl)sulfonyl]pyrrolidin-3-amine] and `Cn1cnc(S(=O)(=O)N2C[C@@H](NCc3ccccc3F)[C@H](c3ccc(F)cc3)C2)c1` (relative stereo) [Example 263, trans-N-(2-fluorobenzyl)-4-(4-fluorophenyl)-1-[(1-methyl-1H-imidazol-4-yl)sulfonyl]pyrrolidin-3-amine] cannot be ordered by Ki: ≤ 1000 nM for the first, ≤ 100 nM for the second.

`Cn1cnc(S(=O)(=O)N2C[C@@H](Nc3cc(C(F)(F)F)ccn3)[C@H](C3CCCCO3)C2)c1` (relative stereo) [Example 682, N-{Trans-1-[(1-methyl-1H-imidazol-4-yl)sulfonyl]-4-[tetrahydro-2H-pyran-2-yl]pyrrolidin-3-yl}-4-(trifluoromethyl)pyridin-2-amine] and `Cn1cnc(S(=O)(=O)N2C[C@@H](Nc3cccc(C(F)(F)F)n3)[C@H](c3cccc(F)c3)C2)c1` (relative stereo) [Example 195, N-{trans-4-(3-fluorophenyl)-1-[(1-methyl-1H-imidazol-4-yl)sulfonyl]pyrrolidin-3-yl} -6-(trifluoromethyl)pyridin-2-amine] cannot be ordered by Ki: ≤ 100 nM for the first, ≤ 10000 nM for the second.

`Cn1cnc(S(=O)(=O)N2C[C@@H](NCc3ccc(Cl)cc3Cl)[C@H](c3cccnc3)C2)c1` (relative stereo) [Example 286, trans-N-(2,4-dichlorobenzyl)-1-[(1-methyl-1H-imidazol-4-yl)sulfonyl]-4-(pyridin-3-yl)pyrrolidin-3-amine] and `Cn1cnc(S(=O)(=O)N2C[C@@H](NCc3ccc(Cl)cc3Cl)[C@H](c3ccccc3Cl)C2)c1` (relative stereo) [Example 284, trans-4-(2-chlorophenyl)-N-(2,4-dichlorobenzyl)-1-[(1-methyl-1H-imidazol-4-yl)sulfonyl]pyrrolidin-3-amine] cannot be ordered by Ki: ≤ 10000 nM for the first, ≤ 100 nM for the second.

`Cn1cnc(S(=O)(=O)N2C[C@H](NCC(C)(C)C)[C@@H](c3ccccc3)C2)c1` [Example 436, (3R,4S)-N-(2,2-dimethylpropyl)-1-[(1-methyl-1H-imidazol-4-yl)sulfonyl]-4-phenylpyrrolidin-3-amine] and `CC(C)CN[C@H]1CN(S(=O)(=O)c2cn(C)cn2)C[C@@H]1c1ccccc1` [Example 439, (3R,4S)-1-[(1-methyl-1H-imidazol-4-yl)sulfonyl]-N-(2-methylpropyl)-4-phenylpyrrolidin-3-amine] cannot be ordered by Ki: ≤ 1000 nM for the first, ≤ 1000 nM for the second.

`Cn1cnc(S(=O)(=O)N2C[C@@H](NC(=O)c3ccccc3)[C@H](c3ccccc3)C2)c1` (relative stereo) [Example 25, N-{trans-1-[(1-methyl-1H-imidazol-4-yl)sulfonyl]-4-phenylpyrrolidin-3-yl}benzamide] and `Cn1cnc(S(=O)(=O)N2C[C@@H](Nc3ccc(Cl)c(C(F)(F)F)c3)[C@H](c3ccccc3)C2)c1` (relative stereo) [Example 217, trans-N-[4-chloro-3-(trifluoromethyl)phenyl]-1-[(1-methyl-1H-imidazol-4-yl)sulfonyl]-4-phenylpyrrolidin-3-amine] cannot be ordered by Ki: ≤ 10000 nM for the first, ≤ 1000 nM for the second.

`Cc1cccc(OC[C@@H]2CN(S(=O)(=O)c3cn(C)cn3)C[C@H]2c2ccc(F)cc2)c1` (relative stereo) [Example 296, 4-({trans-3-(4-fluorophenyl)-4-[(3-methylphenoxy)methyl]pyrrolidin-1-yl}sulfonyl)-1-methyl-1H-imidazole] and `Cn1cnc(S(=O)(=O)N2C[C@@H](Nc3ccc(Cl)c(Cl)c3)[C@H](c3cccc(F)c3)C2)c1` (relative stereo) [Example 192, trans-N-(3,4-dichlorophenyl)-4-(3-fluorophenyl)-1-[(1-methyl-1H-imidazol-4-yl)sulfonyl]pyrrolidin-3-amine] cannot be ordered by Ki: ≤ 100 nM for the first, ≤ 1000 nM for the second.

`Cn1cnc(S(=O)(=O)N2C[C@@H](Nc3cccc(OC(F)(F)F)c3)[C@H](c3ncccc3F)C2)c1` (relative stereo) [Example 799, Trans-4-(3-fluoropyridin-2-yl)-1-[(1-methyl-1H-imidazol-4-yl)sulfonyl]-N-[3-(trifluoromethoxy)phenyl]pyrrolidin-3-amine] and `Cc1cc(N[C@@H]2CN(S(=O)(=O)c3cn(C)cn3)C[C@H]2c2ncccc2F)ncc1F` (relative stereo) [Example 769, 5-fluoro-N-{trans-4-(3-fluoropyridin-2-yl)-1-[(1-methyl-1H-imidazol-4-yl)sulfonyl]pyrrolidin-3-yl}-4-methylpyridin-2-amine] cannot be ordered by Ki: ≤ 100 nM for the first, ≤ 1000 nM for the second.

`O=S(=O)(c1cccc2cnccc12)N1CC(Nc2ccc(F)c(F)c2)C(c2ccccc2)C1` (stereo not shown) [Example 515, N-(3,4-difluorophenyl)-1-(isoquinolin-5-ylsulfonyl)-4-phenylpyrrolidin-3-amine] and `Cc1ccc(S(=O)(=O)N2CC(Nc3ccc(F)c(F)c3)C(c3ccccc3)C2)s1` (stereo not shown) [Example 518, N-(3,4-difluorophenyl)-1-[(5-methylthiophen-2-yl)sulfonyl]-4-phenylpyrrolidin-3-amine] cannot be ordered by Ki: ≤ 10000 nM for the first, > 10000 nM for the second.

`O=S(=O)(N1CCOCC1)N1CC(Nc2ccc(F)c(F)c2)C(c2ccccc2)C1` (stereo not shown) [Example 521, N-(3,4-difluorophenyl)-1-(morpholin-4-ylsulfonyl)-4-phenylpyrrolidin-3-amine] and `Cn1cnc(S(=O)(=O)N2C[C@@H](NCc3ccc(Cl)cc3Cl)[C@H](c3ccccc3F)C2)c1` (relative stereo) [Example 282, trans-N-(2,4-dichlorobenzyl)-4-(2-fluorophenyl)-1-[(1-methyl-1H-imidazol-4-yl)sulfonyl]pyrrolidin-3-amine] cannot be ordered by Ki: ≤ 10000 nM for the first, ≤ 100 nM for the second.

In the case of `Cc1nn(C)c(Cl)c1S(=O)(=O)N1C[C@@H](NC(=O)c2cccc(C(F)(F)F)c2Cl)[C@H](c2ccccc2)C1` (relative stereo) [Example 40, 2-chloro-N-{trans-1-[(5-chloro-1,3-dimethyl-1H-pyrazol-4-yl)sulfonyl]-4-phenylpyrrolidin-3-yl}-3-(trifluoromethyl)benzamide], the Ki is reported as ≥ 10000 nM.

Same assay, conditions: radioligand binding, recombinant CHO cell membranes expressing human GlyT1c

For `Cn1cnc(S(=O)(=O)N2C[C@H](Nc3ccc4c(c3)N(Cc3ccccc3)CC4)[C@@H](c3ccccc3)C2)c1` [Example 826, 1-benzyl-N-{(3R,4S)-1-[(1-methyl-1H-imidazol-4-yl)sulfonyl]-4-phenylpyrrolidin-3-yl}-2,3-dihydro-1H-indol-6-amine], the Ki was ≤ 10000 nM.
